The target in one data set is FOXO3 (Homo sapiens, UniProt O43524). Put plainly: fluorescence polarization displacement of IRE-FAM oligonucleotide from recombinant FOXO3-DBD (Ki calculated from IC50 […]); supported by FAM-EMSA. The class given is binding.
A further data set has as its target FOXO3-DBD (human, UniProt O43524 156-269). Nature of the data set: EMSA; 1 uM protein, 100 nM DNA; 'high affinity'; Not stated; FPA and FAM-EMSA as described in ref 24. The conditions noted are these: protein: recombinant; blunt. (A gel shift assay detects complexes by their altered migration in electrophoresis.)

This is an account of results in paper PMC7017090, “Repaglinide Silences the FOXO3/Lumican Axis and Represses the Associated Metastatic Potential of Neuronal Cancer Cells” (Cells, 2019).

In general, Ki refers to a measure of affinity in units of concentration, obtained from inhibition or displacement.

Chain of FOXO3 (O43524 156-269): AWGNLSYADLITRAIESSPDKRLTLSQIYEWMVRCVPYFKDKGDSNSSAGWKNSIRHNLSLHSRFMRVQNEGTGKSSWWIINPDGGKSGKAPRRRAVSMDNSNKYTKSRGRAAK
Chain of FOXO3-DBD (O43524 156-269): as above

Regarding `CCOc1cc(CC(=O)N[C@@H](CC(C)C)c2ccccc2N2CCCCC2)ccc1C(=O)O` [RPG, repaglinide], the Ki at FOXO3 was 24.9 µM.

B1: FoxP3 oligonucleotide (FAM) (dsDNA)
DNA 1: AGCAAAGTTGTTTTTGATAATG
DNA 2: CATTATCAAAAACAACTTTGCT
Turning to B1, in the data set with FOXO3-DBD, the binding result is on record as “binds”.
